According to patent US20080103162A1, “Antipruritics” (priority 2001, published 2008):

Columns and labels:
Assay type in all cases: in vivo
[1] = system: male ddY mice; assay: compound 48/80-induced scratching behavior, intravenous administration (Test Example 1); conditions: intravenously administered five minutes before compound 48/80 (50 μg/0.1 ml, subcutaneous, back), FIG. 1 to FIG. 3
[2] = system: male ICR mice; assay: spontaneous scratching behavior of mice with cutaneous barrier disruption (Test Example 4); conditions: 0.1% in 100% ethanol, applied (100 μl) in vicinity of shaved portion, before vs after application, FIG. 6
Procedure: The rostral back portion of 5 weeks-old male ICR mice was shaved under etherization, and then cutaneous barrier was disrupted by carrying out a treatment of applying a mixed solution of acetone and ether (1:1) to the shaved portion and applying distilled water twice a day every day (10 days). […] The compound was applied (100 μl) in the vicinity of the shaved portion.

[3] = system: male ICR mice; assay: eye scratching behavior induced by instillation of serotonin (Test Example 3); conditions: instillation of 10 μl of compound five minutes before 10 μl of 1% serotonin hydrochloride in right eye, FIG. 5
Procedure: After the instillation of 10 μl of 1% serotonin hydrochloride (hereinafter referred to as serotonin) in the right eye of 4-6 weeks-old male ICR mice, the number of scratching behavior in the vicinity of the eye induced by the instillation of serotonin for 10 minutes. […] Five minutes before the instillation of serotonin, the instillation of 10 μl of the compound was performed. In a control group, the instillation of distilled water was performed.

[4] = system: wild type mice; assay: compound 48/80-induced scratching behavior in wild type mice (Test Example 2); conditions: wild type mice (backcrossed with C57BL/6J); intravenous, five minutes before compound 48/80; FIG. 4(a)
[5] = system: nociceptine receptor defective mice; assay: compound 48/80-induced scratching behavior in nociceptine receptor defective mice (Test Example 2); conditions: intravenous, five minutes before compound 48/80, FIG. 4(b)

Compound | scratching behavior suppressing effect (number of scratching behavior for 30 minutes) [1] | suppression of spontaneous scratching behavior induced by cutaneous barrier disruption (number of scratching behavior for 30 minutes) [2] | suppression of eye scratching behavior induced by instillation of serotonin (number of scratching behavior for 10 minutes) [3] | scratching behavior suppressing effect (number of scratching behavior for 30 minutes) [4] | scratching behavior suppressing effect (number of scratching behavior for 30 minutes) [5]
CCc1ccc(OCc2ccccc2C(=O)Nc2ccc3nc(C)cc(N)c3c2)cc1.Cl [compound C, N-(4-amino-2-methyl-6-quinolyl)-2-[(4-ethylphenoxy)methyl]benzamide hydrochloride, reference compound] | strong scratching behavior suppressing effect |  |  |  | 
Cc1ccc2nc(NC(=O)c3ccc(Cl)cc3)nc(N[C@H]3CCCC[C@H]3NC(=N)N)c2c1.Cl.Cl [compound D, (1R,2S)—N-amidino-2-{[2-(4-chlorobenzoylamino)-6-methylquinazolin-4-yl]amino}cyclohexylamine dihydrochloride] |  | strongly suppressed | strongly suppressed |  | 
COc1ccc2nc(NC(=O)c3ccc(Cl)cc3)nc(N[C@H]3CCCC[C@H]3NC(=N)N)c2c1.Cl.Cl [compound A, (1R,2S)—N-amidino-2-[2-(4-chlorobenzoylamino)-6-methoxyquinazolin-4-yl]aminocyclohexylamine dihydrochloride] | strong scratching behavior suppressing effect |  |  | strong scratching behavior suppressing effect | completely disappeared
